This is an account of results in ChEMBL document CHEMBL4321794, “Discovery and Optimization of 2-Arylquinazolin-4-ones into a Potent and Selective Tankyrase Inhibitor Modulating Wnt Pathway Activity” (J Med Chem, 2019).

pIC50, pKi: −log10 of the molar value. ≈ marks a conversion by molar mass, not a printed value. Where only a bound is given, the exact number is not on record here.

Data set [1] is described as follows: Intrinsic clearance in mouse liver microsomes assessed per mg protein in presence of NADPH by UPLC analysis. Conditions: read-out: CLH. It is filed as ADME, Microsome.
The nature of data set [2]: Intrinsic clearance in human liver microsomes assessed per mg protein in presence of NADPH by UPLC analysis. As to conditions: read-out: CLH. It is filed as ADME, Microsome. Background: Liver microsomes are vesicles of endoplasmic reticulum, rich in cytochrome P450 enzymes.
The next data set concerns the target T1, Tankyrase 1/2 (Homo sapiens, UniProt Q9H2K2+O95271).
T1 sequence (Q9H2K2 whole entry): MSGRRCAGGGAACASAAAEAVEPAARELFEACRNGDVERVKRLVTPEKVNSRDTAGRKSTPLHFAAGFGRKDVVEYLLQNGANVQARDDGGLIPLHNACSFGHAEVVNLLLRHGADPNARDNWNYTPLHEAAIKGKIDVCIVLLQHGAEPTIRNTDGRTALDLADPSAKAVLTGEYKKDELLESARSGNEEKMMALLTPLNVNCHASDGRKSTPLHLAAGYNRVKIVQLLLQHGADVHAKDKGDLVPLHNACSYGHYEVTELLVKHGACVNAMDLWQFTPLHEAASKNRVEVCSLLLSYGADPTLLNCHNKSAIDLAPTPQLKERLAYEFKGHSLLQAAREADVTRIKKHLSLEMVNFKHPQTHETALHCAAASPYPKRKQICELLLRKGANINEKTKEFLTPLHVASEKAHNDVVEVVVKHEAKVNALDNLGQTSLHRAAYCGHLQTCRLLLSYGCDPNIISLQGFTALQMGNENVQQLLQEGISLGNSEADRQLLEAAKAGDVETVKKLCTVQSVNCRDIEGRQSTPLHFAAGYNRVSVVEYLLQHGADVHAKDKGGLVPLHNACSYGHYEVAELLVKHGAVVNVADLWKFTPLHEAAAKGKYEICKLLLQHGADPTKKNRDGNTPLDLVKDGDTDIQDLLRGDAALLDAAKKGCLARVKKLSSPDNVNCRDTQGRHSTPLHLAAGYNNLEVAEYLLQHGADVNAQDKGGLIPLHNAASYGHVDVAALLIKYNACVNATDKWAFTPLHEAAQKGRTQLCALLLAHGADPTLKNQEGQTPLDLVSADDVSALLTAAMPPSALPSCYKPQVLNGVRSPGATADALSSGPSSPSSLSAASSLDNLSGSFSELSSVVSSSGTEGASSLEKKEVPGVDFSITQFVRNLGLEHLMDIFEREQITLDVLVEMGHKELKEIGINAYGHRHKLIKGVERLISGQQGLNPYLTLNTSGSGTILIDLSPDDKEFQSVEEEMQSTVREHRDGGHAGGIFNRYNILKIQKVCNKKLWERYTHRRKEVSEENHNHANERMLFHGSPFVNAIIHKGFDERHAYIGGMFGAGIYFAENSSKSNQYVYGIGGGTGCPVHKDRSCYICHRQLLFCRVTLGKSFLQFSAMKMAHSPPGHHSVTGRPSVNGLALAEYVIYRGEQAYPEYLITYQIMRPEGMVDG
T1 sequence (O95271 whole entry): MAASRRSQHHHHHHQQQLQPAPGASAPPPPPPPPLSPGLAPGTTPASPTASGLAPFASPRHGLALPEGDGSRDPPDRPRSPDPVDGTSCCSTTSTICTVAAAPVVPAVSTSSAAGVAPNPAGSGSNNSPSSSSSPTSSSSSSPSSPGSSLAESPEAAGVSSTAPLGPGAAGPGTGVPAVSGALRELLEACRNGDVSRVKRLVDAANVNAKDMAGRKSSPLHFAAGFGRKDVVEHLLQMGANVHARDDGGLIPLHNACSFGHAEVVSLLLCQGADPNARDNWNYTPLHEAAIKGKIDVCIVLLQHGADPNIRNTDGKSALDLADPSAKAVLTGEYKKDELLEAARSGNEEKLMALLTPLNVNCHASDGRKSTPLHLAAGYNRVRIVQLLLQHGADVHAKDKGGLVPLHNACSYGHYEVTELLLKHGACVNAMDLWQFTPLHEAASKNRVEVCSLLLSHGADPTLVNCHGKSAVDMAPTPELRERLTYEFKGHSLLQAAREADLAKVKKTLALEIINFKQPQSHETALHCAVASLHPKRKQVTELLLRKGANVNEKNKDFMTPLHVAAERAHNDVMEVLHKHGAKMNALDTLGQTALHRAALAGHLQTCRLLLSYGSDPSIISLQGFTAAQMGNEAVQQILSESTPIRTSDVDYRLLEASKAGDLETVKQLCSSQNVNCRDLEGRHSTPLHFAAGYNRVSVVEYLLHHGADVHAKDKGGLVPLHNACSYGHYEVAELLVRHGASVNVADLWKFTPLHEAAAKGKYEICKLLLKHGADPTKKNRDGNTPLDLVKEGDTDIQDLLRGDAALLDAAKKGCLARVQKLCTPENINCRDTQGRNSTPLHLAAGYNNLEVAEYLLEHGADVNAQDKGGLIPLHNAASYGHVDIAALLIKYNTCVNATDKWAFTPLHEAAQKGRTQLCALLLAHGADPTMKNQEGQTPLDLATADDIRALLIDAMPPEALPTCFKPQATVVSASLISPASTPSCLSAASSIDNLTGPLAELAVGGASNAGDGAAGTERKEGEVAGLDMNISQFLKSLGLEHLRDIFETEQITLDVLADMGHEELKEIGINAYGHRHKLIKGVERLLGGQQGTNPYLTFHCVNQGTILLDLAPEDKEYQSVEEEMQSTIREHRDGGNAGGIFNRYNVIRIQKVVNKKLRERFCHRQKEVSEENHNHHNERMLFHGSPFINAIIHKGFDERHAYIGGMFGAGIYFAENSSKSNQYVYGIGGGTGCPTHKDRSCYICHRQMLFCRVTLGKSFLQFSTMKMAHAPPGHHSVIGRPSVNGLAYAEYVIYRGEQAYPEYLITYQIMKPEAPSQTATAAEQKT

Data set [3] deals with T2, Poly [ADP-ribose] polymerase 1 (Homo sapiens, UniProt P09874). The data set can be described thus: Inhibition of recombinant human full-length Myc/His-tagged Parp-1 expressed in baculovirus infected Sf21 insect cells assessed as reduction in auto-PARsylation using activated DNA as substrate incubated for 150 mins in presence of NAD and bio-NAD as co-substrate by TR-FRET assay.
T2 sequence (P09874 whole entry): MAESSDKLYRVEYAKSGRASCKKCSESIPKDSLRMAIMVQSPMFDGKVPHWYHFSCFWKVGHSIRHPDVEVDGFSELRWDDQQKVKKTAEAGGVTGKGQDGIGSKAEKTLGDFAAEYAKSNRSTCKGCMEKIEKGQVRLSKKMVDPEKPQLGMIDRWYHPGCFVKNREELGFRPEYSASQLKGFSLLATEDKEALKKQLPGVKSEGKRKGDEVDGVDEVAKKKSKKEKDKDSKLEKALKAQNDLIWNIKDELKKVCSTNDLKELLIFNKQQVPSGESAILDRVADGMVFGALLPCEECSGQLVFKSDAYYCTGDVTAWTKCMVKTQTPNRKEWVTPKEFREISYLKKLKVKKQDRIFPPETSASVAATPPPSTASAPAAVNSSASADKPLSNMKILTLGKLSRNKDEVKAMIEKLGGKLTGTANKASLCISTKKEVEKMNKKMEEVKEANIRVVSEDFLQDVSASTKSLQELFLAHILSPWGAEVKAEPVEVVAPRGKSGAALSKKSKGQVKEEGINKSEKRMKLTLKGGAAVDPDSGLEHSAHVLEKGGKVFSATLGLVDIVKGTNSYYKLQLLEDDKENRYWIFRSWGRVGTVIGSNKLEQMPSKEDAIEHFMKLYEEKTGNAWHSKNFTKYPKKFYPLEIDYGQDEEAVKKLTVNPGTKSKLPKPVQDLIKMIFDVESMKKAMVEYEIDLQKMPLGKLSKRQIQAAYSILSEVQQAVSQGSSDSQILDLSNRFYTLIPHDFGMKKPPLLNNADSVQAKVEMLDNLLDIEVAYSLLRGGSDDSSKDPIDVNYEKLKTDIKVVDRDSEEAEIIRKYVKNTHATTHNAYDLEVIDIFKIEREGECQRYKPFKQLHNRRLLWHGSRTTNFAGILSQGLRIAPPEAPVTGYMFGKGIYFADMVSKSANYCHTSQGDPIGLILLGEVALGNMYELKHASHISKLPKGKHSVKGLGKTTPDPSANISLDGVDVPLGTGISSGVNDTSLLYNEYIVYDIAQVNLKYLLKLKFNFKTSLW

Data set [4] in a line: Thermodynamic solubility in phosphate buffer at pH 7.4 at 2 mg incubated under shaking condition for 6 hrs followed by rechecking and readjusting pH to 7.4 and further incubated for 18 hrs by HPLC/UV detection method. Conditions: read-out: Therm_solubility. It is filed as physicochemical.
Data set [5] deals with T3, Poly [ADP-ribose] polymerase tankyrase-2 (Homo sapiens, UniProt Q9H2K2).
T3 sequence (Q9H2K2 whole entry): T1 sequence (Q9H2K2 whole entry)
Nature of the data set: biochemical.
Description: Inhibition of GST tagged-TEV cleavage site-fused human recombinant TNKS2 (873 to 1166 residues) expressed in baculovirus infected Sf9 cells assessed as reduction in auto-PARsylation incubated for 90 mins in presence of bio-NAD as co-substrate by TR-FRET assay

For data set [6], the target named is T4, Poly [ADP-ribose] polymerase tankyrase-1 (Homo sapiens, UniProt O95271).
T4 sequence (O95271 whole entry): T1 sequence (O95271 whole entry)
The data set can be described thus: biochemical.
Description: Inhibition of GST tagged-TEV cleavage site-fused human recombinant TNKS1 (1023 to 1327 residues) expressed in baculovirus infected Sf9 cells assessed as reduction in auto-PARsylation incubated for 90 mins in presence of bio-NAD as co-substrate by TR-FRET assay

The target of data set [7] is Voltage-gated inwardly rectifying potassium channel KCNH2 (Homo sapiens, UniProt Q12809). The data set can be described thus: Inhibition of human ERG expressed in HEK293 cells at -80 mV holding potential by whole cell patch clamp method. The class given is cell-based.
Chain of Voltage-gated inwardly rectifying potassium channel KCNH2 (Q12809 whole entry): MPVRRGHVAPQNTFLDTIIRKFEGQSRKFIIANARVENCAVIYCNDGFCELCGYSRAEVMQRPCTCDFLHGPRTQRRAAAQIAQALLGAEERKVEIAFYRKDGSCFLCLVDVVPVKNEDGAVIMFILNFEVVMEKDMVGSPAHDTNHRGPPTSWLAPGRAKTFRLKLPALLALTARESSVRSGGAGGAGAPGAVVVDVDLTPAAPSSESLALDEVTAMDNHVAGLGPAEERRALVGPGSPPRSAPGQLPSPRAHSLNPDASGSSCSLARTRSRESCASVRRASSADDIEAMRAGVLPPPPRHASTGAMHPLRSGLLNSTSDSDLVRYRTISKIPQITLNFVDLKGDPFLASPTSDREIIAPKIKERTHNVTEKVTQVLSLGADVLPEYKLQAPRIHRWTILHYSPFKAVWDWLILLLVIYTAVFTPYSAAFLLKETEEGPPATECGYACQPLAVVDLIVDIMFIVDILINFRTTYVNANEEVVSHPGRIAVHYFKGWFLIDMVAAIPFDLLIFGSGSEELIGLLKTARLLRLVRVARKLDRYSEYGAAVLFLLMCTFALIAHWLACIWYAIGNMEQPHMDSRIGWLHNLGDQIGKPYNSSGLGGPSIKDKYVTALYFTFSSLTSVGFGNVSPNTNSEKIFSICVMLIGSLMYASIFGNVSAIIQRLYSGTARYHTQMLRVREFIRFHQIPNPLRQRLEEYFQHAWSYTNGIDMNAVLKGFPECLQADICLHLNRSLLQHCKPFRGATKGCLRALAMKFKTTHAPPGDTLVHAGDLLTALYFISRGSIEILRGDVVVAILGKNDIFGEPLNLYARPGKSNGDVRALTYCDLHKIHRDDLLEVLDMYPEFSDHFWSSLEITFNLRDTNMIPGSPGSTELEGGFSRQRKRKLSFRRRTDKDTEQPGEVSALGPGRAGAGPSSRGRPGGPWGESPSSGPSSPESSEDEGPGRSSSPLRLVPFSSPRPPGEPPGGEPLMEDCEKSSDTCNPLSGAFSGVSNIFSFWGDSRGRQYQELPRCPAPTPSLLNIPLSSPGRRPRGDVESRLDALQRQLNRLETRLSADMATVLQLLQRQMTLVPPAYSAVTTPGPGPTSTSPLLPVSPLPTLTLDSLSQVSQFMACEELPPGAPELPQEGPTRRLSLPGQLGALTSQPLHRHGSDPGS
The target of data set [8] is T4, Poly [ADP-ribose] polymerase tankyrase-1. Further details: species or system Sf9.
Data set [9] has as its target T3, Poly [ADP-ribose] polymerase tankyrase-2. Nature of the data set: biochemical. This is another data set of the same source.
Description: Inhibition of GST tagged-TEV cleavage site-fused human recombinant TNKS2 (873 to 1166 residues) expressed in baculovirus infected sf9 cells assessed as reduction in auto-PARsylation incubated for 60 mins in presence of bio-NAD as co-substrate by ELISA
In data set [10] the target is T2, Poly [ADP-ribose] polymerase 1. The data set can be described thus: Inhibition of recombinant human full-length Myc/His-tagged Parp-1 expressed in baculovirus infected Sf21 insect cells assessed as reduction in auto-PARsylation at 10 uM using activated DNA as substrate incubated for 150 mins in presence of NAD and bio-NAD as co-substrate by TR-FRET assay relative to control. For orientation: In TR-FRET formats the signal depends on donor and acceptor labels being close together.

Description for Tankyrase 1/2: Inhibition of tankyrase 1/2 in human DLD1 cells assessed as increase in axin2 accumulation incubated for 24 hrs by luminex based bead assay

In general, EC50 refers to the concentration giving half of the maximal effect. A high value points to lower potency in that assay. The pIC50 is −log10 of the IC50, conventionally taken in molar units. Take `O=c1[nH]c(-c2ccc3c(c2)OCO3)nc2ccccc12`: the microsomal CLint worked out at 346 µL/min/mg in [1] and 83 µL/min/mg in data set [2]. In addition, at Tankyrase 1/2, the EC50 is more than 30 µM. Also, the results for the pIC50 in data set [3], in data set [5] and in data set [6] were 5.77, 6.21 and 6.37, respectively. The solubility thermodynamic at 24 h in data set [4] was found to be 0.001 mg/mL (≈ 3.76 µM).
A word on the pKi: it is the negative decadic logarithm of the Ki, by convention in mol/L. A low value points to a high Ki. In the case of `Cc1cc(F)cc2c(=O)[nH]c(-c3ccc(C4CCNCC4)cc3)nc12.Cl`, the microsomal CLint in data set [1] was 77 µL/min/mg; in [2], less than 10 µL/min/mg. Moreover, the pIC50 in data set [3] was 6.41; in data set [8] it was 8.89. The compound also showed a negative-log Ki (pKi) in data set [7] of 5.17. In addition, in data set [4], the solubility thermodynamic at 24 h worked out at 0.044 mg/mL.
One may read the inhibition as the relative decrease from the control value, in per cent. Regarding `CC(C)(C)c1ccc(-c2nc3ccccc3c(=O)[nH]2)cc1`, the microsomal CLint is less than 10 µL/min/mg in data set [1] and 19 µL/min/mg in data set [2]. The pIC50 in [9] was 8.06; in data set [3], less than 5.00; in data set [8] it was 8.10. For the same compound, the inhibition in data set [10] amounted to 35%. The compound further had an EC50 on Tankyrase 1/2 of 1.5 µM. Besides, the solubility thermodynamic at 24 h in [4] is less than 0.001 mg/mL.
Take `CN1CCC(c2ccc(-c3nc4c(F)cc(F)cc4c(=O)[nH]3)cc2)CC1.O=C(O)C(F)(F)F`: the microsomal CLint is 39 µL/min/mg in data set [1] and less than 10 µL/min/mg in [2]. The results for the pIC50 in data set [9], in data set [3] and in data set [8] were 7.51, 5.43 and 7.51, respectively. Besides, at Tankyrase 1/2, the EC50 worked out at 3.9 µM. Besides, in data set [4], the solubility thermodynamic at 24 h turned out to be 0.065 mg/mL.
